Data on 3 compounds can be found in patent US10933033B2, “Composition for preventing or reducing nephrotoxicity and use thereof” (KOREA INSTITUTE OF SCIENCE AND TECHNOLOGY, priority 2018, dated 2021).

Test [1] has as its system LLC-PK1 cells. Description: Protective effect against cisplatin nephrotoxicity, cell viability (CCK-8). Format: cell-based. As to conditions: for effect on cell viability that had been reduced with cisplatin: 25 μM cisplatin, LLC-PK1, concentration-dependent; for viability at 5 µg/mL / viability at 10 µg/mL / viability at 25 µg/mL / viability at 50 µg/mL / viability at 100 µg/mL / viability at 10 µM: Sus scrofa, LLC-PK1. The procedure: First, LLC-PK1 cells were cultured in a Dulbecco's modified Eagle's medium (DMEM) (available from Cellgro, Manassas, Va., USA) in which 10% of fetal bovine serum (FBS), 100 units/mL of penicillin G, and 100 μg/mL of streptomycin were added, in an incubator (95% air and 5% CO2) maintained at about 37° C. The used FBS, penicillin G, and streptomycin were purchased from Gibco BRL Life Technologies Inc. The cultured LLC-PK1 cells were dispensed in a 96-well plate at a density of 1×10^4 cells in 100 μL of the same DMEM medium per each well and then stabilized for about 22 hours.
After 1 hour, absorbance at a detection wavelength of 450 nm was measured using a BIO-TEK microplate reader (available from Winooski, Vt., USA) to thereby measure cell viability.

The test system of test [2] is LLC-PK1 cells. In words: Image-based cell analysis of apoptosis (Annexin V / PI, Tali cytometer). To be noted: for Apoptosis (%): 2 h pre-incubation, then 25 μM cisplatin for 24 h, LLC-PK1. The procedure: The cultured LLC-PK1 cells in DMEM were dispensed in a 6-well plate at a density of 4×10^5 cells in 3 mL of the same DMEM medium per each well and then incubated under the same conditions for 24 hours to stabilize the cells.
After incubation under the same conditions for about 24 hours, the cells were collected using trypsin, washed once with phosphate-buffered saline (PBS), resuspended in 100 μL of annexin-binding buffer ([…], 140 mM NaCl, […], pH 7.4) to reach a cell number of about 5×10^5 to about 5×10^6 cells/mL, and then mixed with 5 μL of Annexin V Alexa Fluor 488 and left in the dark at room temperature for about 20 minutes to fix and stain the cells. The resulting cell suspension was centrifuged to discard the supernatant and collect precipitated cell pellets. The precipitated cell pellets were resuspended in 100 μL of annexin-binding buffer to obtain a resuspension.
Next, 1 μL of propidium iodide (PI) was added to the resuspension, mixed thoroughly, and then left in the dark at room temperature for about 1 minute to about 5 minutes to fix and stain the cells. The stained cells were analyzed using a Tali Image-based cytometer and TaliPCApp (version 1.0) software.
Cells were divided into live cells (annexin V-negative/PI-negative), early apoptotic cells (annexin V-positive/PI-negative), and late apoptotic or necrotic cells (annexin V-positive/PI-positive), and total apoptotic cells were expressed as a ratio of annexin V-positive cells to PI-negative or PI-positive cells.

The viability is a read-out of living cells in per cent, often relative to untreated cells. A low value points to a greater loss of cells.

SMILES strings stand for the structures.

For `Oc1cccc2c(-c3ccc(O)c4c(O)cccc34)ccc(O)c12` [BNT, 1,1′-binaphthalene-4,4′,5,5′-tetrol], in the test with LLC-PK1 cells [1], the “effect on cell viability that had been reduced with cisplatin” value is reported as “significantly increase cell viability”, the viability at 5 µg/mL was 63.3%, the viability at 10 µg/mL amounted to 65.1% and the viability at 25 µg/mL worked out at 65.4%. In the test on LLC-PK1 cells [1], this compound registered a viability at 50 µg/mL of 71.5% and a viability at 100 µg/mL of 75.1%.

With `O=C1CC2C(=C3c4c2ccc(O)c4[C@@H](O)C[C@@H]3O)c2cccc(O)c21` (some centres unmarked) [Hypoxylonol C], in the test on LLC-PK1 cells [1], the “effect on cell viability that had been reduced with cisplatin” value was “significantly increase cell viability”, the viability at 5 µg/mL is 76.9%, the viability at 10 µM is ≥ 85% and the viability at 10 µg/mL stood at 86.6%. Also, in the test with LLC-PK1 cells [1], the viability at 25 µg/mL amounted to 89.3%, the viability at 50 µg/mL turned out to be 89.5% and the viability at 100 µg/mL turned out to be 92.5%.

Regarding `O=C1CC2C(=C3c4c2ccc(O)c4[C@H](O)C[C@@H]3O)c2cccc(O)c21` (some centres unmarked) [Hypoxylonol F], in the test with LLC-PK1 cells [1], the “effect on cell viability that had been reduced with cisplatin” value is “significantly increase cell viability”, the viability at 5 µg/mL was determined as 86.4%, the viability at 10 µM was ≥ 90% and the viability at 10 µg/mL came out at 90.9%. Besides, in the test on LLC-PK1 cells [1], the viability at 25 µg/mL was found to be 92.2%, the viability at 50 µg/mL is 92.3% and the viability at 100 µg/mL turned out to be 94.4%. Moreover, the “apoptosis of the LLC-PK1 cells caused by cisplatin” value in the test with LLC-PK1 cells [2] (5 μM and 10 μM, 25 μM cisplatin) was “significantly reduced”. The “Apoptosis (%)” value with LLC-PK1 cells [2] (5 μM) is on record as 26.3%. The “Apoptosis (%)” value in the test with LLC-PK1 cells [2] (10 μM) is given as 6.6%.
